Measured values: patent US20120035125A1, “FULVIC ACID IN COMBINATION WITH FLUCONAZOLE OR AMPHOTERICIN B FOR THE TREATMENT OF FUNGAL INFECTIONS” (Natracine UK Limited, priority 2009, published 2012)
In brackets after ≈: the same amount, converted by molar mass. Where two headings read alike, the source gives them in different places.

Experiments:
Format in all cases: cell-based
Candida parapsilosis = experiment: In vitro susceptibility, fluconazole and CHD-FA, main experiment; conditions: Lodderomyces parapsilosis, read-out: Fluconazole MIC (mg/L) alone
Method: (§1) Sterile plastic, disposable, microtitration plates with 96 flat-bottom wells were used.
(§2) a) Column 1 of the microtitration tray was filled with 100 μL of sterile water containing four times the final drug concentration (512 mg/L fluconazole).
(§3) b) Columns 2-12 were filled with 50 μL of distilled water
(§4) c) 50 μL amounts were taken from wells in column 1 and diluted two-fold by transferring them to column 2 with a multichannel pipette (±2% coefficient of variation). 50 μL samples were then removed from column 2 and transferred to column 3, and so on through to column 10. The last 50 μL of diluted drug is then discarded. Thus, each well in columns 1-10 will contain 50 μL of water containing four times the final antifungal drug concentrations.
(§5) Stock solutions of CHD-FA were produced containing 4% and 2% (also 1% and 0.5% for Candida parapsilosis and Candida krusei). 100 μL of the diluted CHD-FA was added to microtitration trays in so that rows contain final dilutions of: • For Candida albicans and tropicalis: 1st row of pair 0.5% CHD-FA, 2nd row of pair solvent only • For Candida glabrata: 1st row of triplet 1% CHD-FA, 2nd row of triplet 0.5% CHD-FA, 3rd row of triplet solvent only • For Candida parapsilosis and Candida krusei rows included 2%, 1%, 0.5%, 0.25 and 0.125% CHD-FA and a row of solvent only.
(§6) All the above concentrations were mixed with fixed concentrations of fluconazole at 128, 32, 8, 2, 0.5 mg/L and solvent for synergy/antagonism assessment.
(§7) 50 μL of the diluted Candida spp suspension in 4×RPMI was added to all wells. This produces a well containing 200 μL final volume (made up of 50 μL diluted fluconazole, 100 μL diluted CHD-FA or diluent, 50 μL of 4×RPMI containing Candida)
(§8) All plates were incubated at 37° C. in air in a darkened incubator.
(§9) Plates were read visually with the endpoint taken as the lowest concentration of drug that inhibited growth by 50% of that of the drug free control.

Candida krusei = experiment: as above
Method: as §1, §2, §3, §4, §5, §6, §7, §8, §9

Candida albicans [1] = experiment: In vitro susceptibility, fluconazole and CHD-FA, preliminary experiment (5 clinical isolates); conditions: read-out: Minimum Inhibitory Concentrations of Fluconazole
Method: (§10) Each culture was grown on Sabouraud agar at 37° C. for 48 h to ensure purity.
Clinical Microbiology and Infection 9:1-VIII.)
a) All yeasts were cultured in ambient air at 35-37° C. on recovery medium (Sabouraud dextrose agar) for 18-24 h before testing.
b) The inoculum was prepared by picking five distinct colonies from 18 to 24 h cultures and suspending them in 5 mL of sterile distilled water.
c) The inoculum was completely suspended by vigorous shaking on a vortex mixer for 15 s. The cell density was adjusted to the density of a 0.5 McFarland standard by adding sterile distilled water and measuring absorbance in a spectrophotometer at a wavelength of 530 nm. This gave a yeast suspension of 1-5×10^6 cfu/mL. A working suspension was prepared by a further dilution of 1 in 10 further in 4×RPMI to give […] (The RPMI medium used in the plates was prepared at 4×the final strength to allow for a 75% dilution once the inoculum and diluted CHD-FA was added).
as §1, §2, §3, §4
Stock solutions of CHD-FA were produced containing 4%, 2%, 1%, 0.5% and 0.25% of the native compound. 100 μL of the diluted CHD-FA was added to microtitration trays in so that row A contains a final dilution of 2% row B, 1%, row C 0.5%, row D 0.25% row E 0.125% and row F diluent only.
50 μL of the diluted Candida albicans suspension in 4×RPMI was added to all cells. This produces a well containing 200 μL final volume (made up of 50 μL diluted fluconazole, 100 μL diluted CHD-FA or diluent, 50 μL of 4×RPMI containing Candida albicans)
as §8, §9
The pH of CHD-FA was adjusted to pH7.0 using 10M NaOH solution (the ideal pH for fluconazole activity). […] Susceptibility assays were repeated as above.

Candida albicans [2] = experiment: In vitro susceptibility, fluconazole and CHD-FA, main experiment
Method: as §10, §1, §2, §3, §4, §5, §6, §7, §8, §9

Candida glabrata = experiment: as above
Method: as §10, §1, §2, §3, §4, §5, §6, §7, §8, §9

Candida tropicalis = experiment: as above
Method: as §10, §1, §2, §3, §4, §5, §6, §7, §8, §9

With `OC(Cn1cncn1)(Cn1cncn1)c1ccc(F)cc1F` [Fluconazole, fluconazole] as the compound, how does the MIC (Candida parapsilosis; C. parapsilosis isolate 1) read?
The MIC was 8 mg/L.

And the MIC (Candida parapsilosis; C. parapsilosis isolate 2)?
The MIC was 2 mg/L.

What about the MIC (Candida parapsilosis; C. parapsilosis isolate 3) of the same compound?
The MIC was 8 mg/L.

What about the MIC (Candida parapsilosis; C. parapsilosis isolate 4) of the same compound?
Its MIC is 8 mg/L.

And the MIC (Candida parapsilosis; C. parapsilosis isolate 5)?
The MIC was 8 mg/L.

And the “Fluconazole MIC (mg/L) alone” value (Candida krusei; C. krusei isolate 1)?
Its value is 32 mg/L.

What about the “Fluconazole MIC (mg/L) alone” value (Candida krusei; C. krusei isolate 2) of the same compound?
The value was 32 mg/L.

And the “Fluconazole MIC (mg/L) alone” value (Candida krusei; C. krusei isolate 4)?
The value was 32 mg/L.

And the “Fluconazole MIC (mg/L) alone” value (Candida krusei; C. krusei isolate 5)?
Its value is 32 mg/L.

And the MIC (Candida krusei; Pichia kudriavzevii, C. krusei isolate 3, read-out: Fluconazole MIC (mg/L) alone)?
The MIC was 32 mg/L.

What about the MIC (Candida albicans [1]; Candida Strain 1, Solvent (no CHD-FA)) of the same compound?
Its MIC is 128 µg/mL (≈ 418 µM).

What about the MIC (Candida albicans [1]; Candida Strain 2, Solvent (no CHD-FA)) of the same compound?
Its MIC is 16 µg/mL (≈ 52.2 µM).

And the MIC (Candida albicans [1]; Candida Strain 3, Solvent (no CHD-FA))?
Its MIC is 16 µg/mL (≈ 52.2 µM).

And the MIC (Candida albicans [1]; Candida Strain 4, Solvent (no CHD-FA))?
The MIC was 32 µg/mL (≈ 104 µM).

What about the MIC (Candida albicans [1]; Candida Strain 5, Solvent (no CHD-FA)) of the same compound?
Its MIC is 16 µg/mL (≈ 52.2 µM).

What about the MIC (Candida albicans [2]; C. albicans isolate 1, read-out: Fluconazole MIC (mg/L) alone) of the same compound?
Its MIC is 128 mg/L.

And the MIC (Candida albicans [2]; C. albicans isolate 2, read-out: Fluconazole MIC (mg/L) alone)?
Its MIC is 8 mg/L.

And the MIC (Candida albicans [2]; C. albicans isolate 3, read-out: Fluconazole MIC (mg/L) alone)?
Its MIC is 16 mg/L.

And the MIC (Candida albicans [2]; C. albicans isolate 4, read-out: Fluconazole MIC (mg/L) alone)?
The MIC was 4 mg/L.

What about the MIC (Candida albicans [2]; C. albicans isolate 5, read-out: Fluconazole MIC (mg/L) alone) of the same compound?
The MIC was 128 mg/L.

And the MIC (Candida albicans [2]; C. albicans isolate 6, read-out: Fluconazole MIC (mg/L) alone)?
The MIC was greater than 128 mg/L.

What about the MIC (Candida albicans [2]; C. albicans isolate 7, read-out: Fluconazole MIC (mg/L) alone) of the same compound?
The MIC was 128 mg/L.

What about the MIC (Candida albicans [2]; C. albicans isolate 8, read-out: Fluconazole MIC (mg/L) alone) of the same compound?
The MIC was 128 mg/L.

What about the MIC (Candida albicans [2]; C. albicans isolate 9, read-out: Fluconazole MIC (mg/L) alone) of the same compound?
Its MIC is 64 mg/L.

And the MIC (Candida albicans [2]; C. albicans isolate 10, read-out: Fluconazole MIC (mg/L) alone)?
Its MIC is 128 mg/L.

What about the MIC (Candida albicans [2]; C. albicans isolate 11, read-out: Fluconazole MIC (mg/L) alone) of the same compound?
The MIC was 0.5 mg/L.

And the MIC (Candida albicans [2]; C. albicans isolate 12, read-out: Fluconazole MIC (mg/L) alone)?
Its MIC is 64 mg/L.

And the MIC (Candida albicans [2]; C. albicans isolate 13, read-out: Fluconazole MIC (mg/L) alone)?
Its MIC is 0.5 mg/L.

And the MIC (Candida albicans [2]; C. albicans isolate 14, read-out: Fluconazole MIC (mg/L) alone)?
The MIC was 32 mg/L.

And the MIC (Candida albicans [2]; C. albicans isolate 15, read-out: Fluconazole MIC (mg/L) alone)?
Its MIC is 2 mg/L.

What about the MIC (Candida albicans [2]; C. albicans isolate 16, read-out: Fluconazole MIC (mg/L) alone) of the same compound?
Its MIC is 64 mg/L.

What about the MIC (Candida albicans [2]; C. albicans isolate 17, read-out: Fluconazole MIC (mg/L) alone) of the same compound?
The MIC was greater than 128 mg/L.

And the MIC (Candida albicans [2]; C. albicans isolate 18, read-out: Fluconazole MIC (mg/L) alone)?
The MIC was greater than 128 mg/L.

And the MIC (Candida albicans [2]; C. albicans isolate 19, read-out: Fluconazole MIC (mg/L) alone)?
The MIC was 0.5 mg/L.

What about the MIC (Candida albicans [2]; C. albicans isolate 20, read-out: Fluconazole MIC (mg/L) alone) of the same compound?
The MIC was greater than 128 mg/L.

What about the MIC (Candida albicans [2]; C. albicans isolate 21, read-out: Fluconazole MIC (mg/L) alone) of the same compound?
Its MIC is 4 mg/L.

What about the MIC (Candida albicans [2]; C. albicans isolate 22, read-out: Fluconazole MIC (mg/L) alone) of the same compound?
Its MIC is 2 mg/L.

What about the MIC (Candida albicans [2]; C. albicans isolate 23, read-out: Fluconazole MIC (mg/L) alone) of the same compound?
The MIC was 1 mg/L.

And the MIC (Candida albicans [2]; C. albicans isolate 24, read-out: Fluconazole MIC (mg/L) alone)?
The MIC was 1 mg/L.

What about the MIC (Candida albicans [2]; C. albicans isolate 25, read-out: Fluconazole MIC (mg/L) alone) of the same compound?
Its MIC is greater than 128 mg/L.

What about the “Fluconazole MIC (mg/L) alone” value (Candida glabrata; C. glabrata isolate 1) of the same compound?
Its value is greater than 128 mg/L.

What about the “Fluconazole MIC (mg/L) alone” value (Candida glabrata; C. glabrata isolate 2) of the same compound?
The value was greater than 128 mg/L.

What about the “Fluconazole MIC (mg/L) alone” value (Candida glabrata; C. glabrata isolate 3) of the same compound?
The value was greater than 128 mg/L.

And the “Fluconazole MIC (mg/L) alone” value (Candida glabrata; C. glabrata isolate 5)?
Its value is greater than 128 mg/L.

What about the “Fluconazole MIC (mg/L) alone” value (Candida glabrata; C. glabrata isolate 6) of the same compound?
Its value is greater than 128 mg/L.

What about the “Fluconazole MIC (mg/L) alone” value (Candida glabrata; C. glabrata isolate 7) of the same compound?
Its value is greater than 128 mg/L.

And the “Fluconazole MIC (mg/L) alone” value (Candida glabrata; C. glabrata isolate 8)?
The value was greater than 128 mg/L.

And the “Fluconazole MIC (mg/L) alone” value (Candida glabrata; C. glabrata isolate 9)?
The value was greater than 128 mg/L.

What about the “Fluconazole MIC (mg/L) alone” value (Candida glabrata; C. glabrata isolate 10) of the same compound?
The value was greater than 128 mg/L.

And the “Fluconazole MIC (mg/L) alone” value (Candida glabrata; C. glabrata isolate 11)?
The value was greater than 128 mg/L.

What about the MIC (Candida glabrata; Nakaseomyces glabratus, C. glabrata isolate 4, read-out: Fluconazole MIC (mg/L) alone) of the same compound?
Its MIC is greater than 128 mg/L.

And the MIC (Candida tropicalis; C. tropicalis isolate 1, read-out: Fluconazole MIC (mg/L) alone)?
Its MIC is 16 mg/L.

What about the MIC (Candida tropicalis; C. tropicalis isolate 2, read-out: Fluconazole MIC (mg/L) alone) of the same compound?
The MIC was greater than 64 mg/L.

What about the MIC (Candida tropicalis; C. tropicalis isolate 3, read-out: Fluconazole MIC (mg/L) alone) of the same compound?
Its MIC is 16 mg/L.

And the MIC (Candida tropicalis; C. tropicalis isolate 4, read-out: Fluconazole MIC (mg/L) alone)?
The MIC was 16 mg/L.
